Experimental data as given in patent publication US6703362B1, “Random peptides that bind to gastro-intestinal tract (GIT) transport receptors and related methods” (Cytogen Corporation, priority 1997, dated 2004).
Each block holds one substance with its values, some of them ahead of it.

Legend:
BSA = BSA (Bos taurus, UniProt P02769); assay: Phage ELISA on BSA (background control protein); type: binding
Procedure: (§1) 96 well plates were coated overnight with GIT receptor, BSA and, optionally, IDE (insulin degrading enzyme, an irrelevant His-fusion protein)or hTF. The plates were 5 blocked for one hour with 0.5% BSA-PBS. After clarification, the amplified phage were diluted 1:100 in […] plus 0.05% Tween 20 in PBS and added to the plates. Following incubation of the plates on a rotator for 1 to 2 hours, the plates were washed 5 times with 1% BSA plus 0.05% Tween 20 in PBS. Dilute anti-M13-HRP conjugate (anti-M13 antibody linked to horse radish peroxidase (HRP)) was added to all the wells and the plate was incubated for one hour on a rotator. After the plates were washed 5 times, as described above, TMB substrate was added to the wells. The plates were read at 650 nm absorbance.

intestinal tissue = assay: Preselected phage libraries, rat closed loop: absorption/internalization to intestinal tissue (hybridization autoradiograph); type: in vivo; conditions: for binding to the intestine / found in the intestine samples: hPEPT1 pool of phages; for found in the intestinal samples fractions: D2H pool of phages
hPEPT1 = biological target: T1, hPEPT1 (Homo sapiens, UniProt P46059); assay: Phage receptor ELISA on hPEPT1; type: binding; conditions: for OD, binding to hPEPT1: Table 4, phage panned on hPEPT1; for PEPT1/BSA: ratio of hPEPT1 to BSA binding
T1 construct: 391-571; made in house
T1 sequence (P46059 391-571): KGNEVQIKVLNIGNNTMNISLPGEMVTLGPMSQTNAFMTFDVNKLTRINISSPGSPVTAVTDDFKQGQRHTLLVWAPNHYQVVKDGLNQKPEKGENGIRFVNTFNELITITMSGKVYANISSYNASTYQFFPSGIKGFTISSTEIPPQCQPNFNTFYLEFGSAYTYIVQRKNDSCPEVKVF
Procedure: as §1

[1] = Isoelectric points of synthetic peptides; type: physicochemical
D2H = biological target: T2, D2H (Homo sapiens, UniProt Q07837); assay: Phage receptor ELISA on D2H; type: binding; conditions: Table 3; for D2H/BSA: ratio of D2H to BSA binding; for OD, binding to D2H: two rounds on D2H, third pan on Caco-2 snapwells
T2 construct: 387-685; made in house
T2 sequence (Q07837 387-685): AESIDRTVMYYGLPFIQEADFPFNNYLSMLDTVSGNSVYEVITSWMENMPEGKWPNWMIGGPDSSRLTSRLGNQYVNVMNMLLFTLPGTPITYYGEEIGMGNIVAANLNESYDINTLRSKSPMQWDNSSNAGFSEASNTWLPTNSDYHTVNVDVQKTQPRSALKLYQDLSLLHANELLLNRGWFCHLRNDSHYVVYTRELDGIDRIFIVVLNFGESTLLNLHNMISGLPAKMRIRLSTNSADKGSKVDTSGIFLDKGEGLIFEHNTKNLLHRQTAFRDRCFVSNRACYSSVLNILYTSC
Procedure: as §1

hSI = biological target: T3, hSI (Homo sapiens, UniProt P14410); assay: Phage receptor ELISA on hSI; type: binding; conditions: for OD, binding to hSI: Table 1, phage panned on hSI, absorbance 650 nm; for hSI/BSA: ratio of hSI to BSA binding
T3 construct: made in house
T3 sequence (P14410 272-667): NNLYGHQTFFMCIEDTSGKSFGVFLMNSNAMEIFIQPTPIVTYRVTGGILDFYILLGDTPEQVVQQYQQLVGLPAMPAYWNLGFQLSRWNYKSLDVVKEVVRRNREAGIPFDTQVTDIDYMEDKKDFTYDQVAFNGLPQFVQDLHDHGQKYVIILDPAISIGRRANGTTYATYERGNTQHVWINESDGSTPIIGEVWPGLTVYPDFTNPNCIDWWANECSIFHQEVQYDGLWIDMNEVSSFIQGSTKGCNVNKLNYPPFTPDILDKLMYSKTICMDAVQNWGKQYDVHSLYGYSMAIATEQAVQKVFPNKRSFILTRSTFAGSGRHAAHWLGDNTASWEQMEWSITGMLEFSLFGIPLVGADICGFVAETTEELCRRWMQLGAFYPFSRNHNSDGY
Procedure: as §1

fixed Caco-2 cells = assay: Effect of thrombin cleavage on binding of GST-peptide fusions to fixed Caco-2 cells; conditions: thrombin 18 h at room temperature
Procedure: Binding of intact and thrombin-cleaved GST-peptide fusions to fixed Caco-2 cells was compared.
Thirty micrograms of each GST-peptide was treated with bovine thrombin (1 μ/ml; 0.4 NIH units; Sigma CN.T9681) for 18 h at room temperature in 2OmM Tris-HCl pH8.0, 150 mM NaCl, 2.5 mM CaCl2. Controls were similarly treated without addition of thrombin. Ten micrograms of each GST-peptide fusion was removed for PAGE analysis, and 10 μg of fusions were added in duplicate to the fixed Caco-2 cells before 5-fold serial dilutions (1% BPT diluent). The fusions were allowed to bind for 1 h at room temperature. Following 6 washes with 1% BPT, binding was assayed by ELISA.

[2] = system: fixed Caco-2 or C2BBe1 cells; assay: ELISA of GST fusion proteins on fixed Caco-2 or C2BBe1 cells; type: binding
Procedure: Fixed Caco-2, C2BBe1, and A431 cell plates were prepared by growing cells on tissue culture treated microtiter plates. When cells were confluent, plates were fixed with 10% formaldehyde, washed twice with PBS and stored with 0.5%BSA-PBS at −20° C. […] The standard ELISA procedure was followed at this point.
The standard ELISA procedure was modified as follows. GST proteins were diluted to an appropriate concentration in PBS containing lkBSA and 0.05% Tween20 (1%BPT), titered and incubated one hour at room temperature. Following five washes an anti-GST monoclonal antibody was added (Sigma, St. Louis Clone GST-2 diluted 1:10,000 in 1%BPT) and incubated one hour. After five more washes goat anti-mouse IgG2b-HRP was added (Southern Biotechnology Associates Inc., Birmingham, Ala., diluted 1:4000 in 1%BPT) and incubated one hour. After five washes plates were developed with TMB peroxidase substrate (Kirkegard and Perry, Gaithersburg, Md.). All data is presented with background binding subtracted.

[3] = system: P100 membrane fraction derived from Caco-2 cells; assay: GST-PAX2 peptides relative binding to P100 fractions (ratio to GST-HAX42); conditions: 20 μg/ml GST-peptide; binding to plastic subtracted; GST-HAX42 = 1.00
Procedure: The peptides and proteins were analyzed by a dansylated peptide ELISA method in which 96 well plates were coated overnight at 4° C. with 100 μl/well coating protein (normally 100 μg/ml P100 membrane fraction) in 0.05M carbonate buffer pH9.6. Nonspecific binding was blocked using 200 μl/well, 2% Marvel/PBS for 2 hours at 37° C. prior to incubation with dansylated peptides. The plates were washed three times with PBS/0.05% Tween 20 and after each subsequent incubation step. […] A buffer blank control was included to ensure that background binding to plastic was not due to the antibodies used in the assay system. […] The plates were then incubated with an anti-mouse X-HRP conjugated antibody (Southern Biotech 1060-05) at a 1:10,000 dilution in blocking solution, 100 μl/well for 1 hour at room temperature. Plates were developed using 75 μl/well Bionostics TMB substrate and incubated for approximately 10 minutes. The developing reaction was stopped using Bionostics Red Stop solution (25 μl/well), and the optical density of the plates was read at 650nm.
After subtraction of the GST-peptide binding to plastic from P100 binding values, the binding of GST-PAX2 peptides were represented as a ratio of GST-HAX42 binding to P100, which was given the arbitrary value of 1.00. The following ratios were determined from binding to P100 of GST-peptides at a peptide concentration of 20 μg/ml. Bold denotes positive binding to the P100 membrane fraction.

[4] = system: ZElan024 (P31), ZElan018 (PAX2), ZElan021 (HAX42); assay: Crossreactive binding of GST fusions to dansylated peptides

BSA, sequence (P02769 25-607): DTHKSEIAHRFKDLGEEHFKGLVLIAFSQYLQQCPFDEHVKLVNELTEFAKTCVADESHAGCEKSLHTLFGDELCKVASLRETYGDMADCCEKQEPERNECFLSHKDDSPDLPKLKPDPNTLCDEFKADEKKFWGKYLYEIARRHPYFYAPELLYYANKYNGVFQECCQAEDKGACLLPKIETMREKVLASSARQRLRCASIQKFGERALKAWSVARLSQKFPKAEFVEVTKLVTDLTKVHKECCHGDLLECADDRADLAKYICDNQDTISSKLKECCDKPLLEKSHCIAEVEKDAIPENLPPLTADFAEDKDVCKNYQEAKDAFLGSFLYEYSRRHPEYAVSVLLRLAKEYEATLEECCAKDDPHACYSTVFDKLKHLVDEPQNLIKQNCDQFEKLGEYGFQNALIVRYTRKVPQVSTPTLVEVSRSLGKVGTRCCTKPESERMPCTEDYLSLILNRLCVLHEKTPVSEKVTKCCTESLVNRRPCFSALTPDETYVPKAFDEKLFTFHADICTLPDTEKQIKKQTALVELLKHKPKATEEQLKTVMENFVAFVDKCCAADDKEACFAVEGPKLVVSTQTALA

Substance: RGSTGTAGGERSGVLNLHTRDNASGSGFKPWYPSNRGHK [Peptide 5PAX5]
OD, binding to BSA (BSA; Table 4): 0.036
binding to the intestine / found in the intestine samples (intestinal tissue): not found in the intestine samples
OD, binding to hPEPT1 (hPEPT1): 0.15
PEPT1/BSA (hPEPT1): 4
pI [1]: 11.49

Substance: RVGQCTDSDVRRPWARSCAHQGCGAGTRNSHGCITRPLRQASAH [SNi10]
OD, binding to BSA (BSA; Table 1, phage panned on hSI): 0.051
pI [1]: 10.45
OD, binding to hSI (hSI): 0.57
hSI/BSA (hSI): 11

Substance: gst-RVGQCTDSDVRRPWARSCAHQGCGAGTRNSHGCITRPLRQASAH [GST-SNi10]
effect of thrombin cleavage on detection of binding (fixed Caco-2 cells): significantly reduced detection of binding
binding to fixed Caco-2 or C2BBe1 cells relative to GST control [2]: bound fixed Caco-2 or C2BBe1 cells

Substance: gst-STPPSREAYSRPYSVDSDSDTNAKHSSHNRRLRTRSRPN [GST-PAX2]
binding to fixed Caco-2 or C2BBe1 cells relative to GST control [2]: bound fixed Caco-2 or C2BBe1 cells
Value (binding to P100 as ratio of GST-HAX42 binding) [3]: 1.79
crossreactive binding to ZElan024 (P31) and ZElan018 (PAX2) ([4]; 0.5 μg/ml concentration used in competition assays): no crossreactive binding

Substance: gst-SDHALGTNLRSDNAKEPGDYNCCGNGNSTGRKVFNRRRPSAIPT [GST-HAX42]
binding to fixed Caco-2 or C2BBe1 cells relative to GST control [2]: weak to moderate binding
Value (binding to P100 as ratio of GST-HAX42 binding) [3]: 1.00
crossreactivity to ZElan018 (PAX2) and ZElan021 (HAX42) ([4]; 5 μg/ml concentration used in competition assays): crossreactivity

Substance: gst-TNAKHSSHNRRLRTRSRPN [GST-PAX2.106]
effect of thrombin cleavage on detection of binding (fixed Caco-2 cells): significantly reduced detection of binding
binding of truncation to fixed Caco-2 cells relative to full-length fusion [2]: bound similarly to full-length PAX2
Value (binding to P100 as ratio of GST-HAX42 binding) [3]: 2.71

Substance: SPCGGSWGRFMQGGLFGGRTDGCGAHRNRTSASLEPPSSDY [SNi34]
OD, binding to BSA (BSA; Table 1, phage panned on hSI): 0.115
pI [1]: 8.25
OD, binding to hSI (hSI): 0.761
hSI/BSA (hSI): 7

Substance: gst-ENANTRKSSRSNPRGRRHP [GST-P31.103]
effect of thrombin cleavage on detection of binding (fixed Caco-2 cells): significantly reduced detection of binding
binding of truncation to fixed Caco-2 cells relative to full-length fusion [2]: bound almost as well as full-length P31

Continued, in another order:

OD, binding to BSA (BSA; Table 3): 0.071
pI [1]: 10.44
D2H/BSA (D2H): 3
OD, binding to D2H (D2H): 0.222
Substance: SQGSKQCMQYRTGRLTVGSEYGCGMNPARHATPAYPARLLPRYR [DCX11]
found in the intestinal samples fractions (intestinal tissue): found in the intestinal samples fractions

OD, binding to BSA (BSA; Table 4): 0.075
binding to the intestine / found in the intestine samples (intestinal tissue): preferential binding
OD, binding to hPEPT1 (hPEPT1): 0.807
PEPT1/BSA (hPEPT1): 11
pI [1]: 12.26
Substance: SARDSGPAEDGSRAVRLNGVENANTRKSSRSNPRGRRHP [Peptide P31]

OD, binding to BSA (BSA; Table 3): 0.063
pI [1]: 11.03
D2H/BSA (D2H): 3
OD, binding to D2H (D2H): 0.163
Substance: RYKHDIGCDAGVDKKSSSVRGGCGAHSSPPRAGRGPRGTMVSRL [DCX8]
found in the intestinal samples fractions (intestinal tissue): to a much lesser extent
